Three compounds from ChEMBL document CHEMBL4402606, “Design and Characterization of the First Selective and Potent Mechanism-Based Inhibitor of Cytochrome P450 4Z1” (J Med Chem, 2020) can be followed below.

In series [1] the target is T1, Cytochrome P450 4Z1 (Homo sapiens, UniProt Q86W10).
T1 sequence (Q86W10 whole entry): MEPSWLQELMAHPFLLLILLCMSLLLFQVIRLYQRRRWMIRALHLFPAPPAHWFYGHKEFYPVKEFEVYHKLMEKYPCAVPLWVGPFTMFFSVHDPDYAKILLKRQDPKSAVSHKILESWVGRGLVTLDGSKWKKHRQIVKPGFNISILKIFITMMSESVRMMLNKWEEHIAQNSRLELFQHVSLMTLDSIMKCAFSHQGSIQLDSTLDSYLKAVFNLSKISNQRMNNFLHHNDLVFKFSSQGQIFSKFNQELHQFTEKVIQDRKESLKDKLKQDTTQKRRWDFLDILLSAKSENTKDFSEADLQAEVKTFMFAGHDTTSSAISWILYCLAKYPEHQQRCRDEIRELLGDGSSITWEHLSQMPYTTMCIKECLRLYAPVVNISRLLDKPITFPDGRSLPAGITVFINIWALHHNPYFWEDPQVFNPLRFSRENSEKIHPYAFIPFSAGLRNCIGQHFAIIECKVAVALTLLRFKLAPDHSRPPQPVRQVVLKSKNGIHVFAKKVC
The series can be described thus: Inhibition of CYP4Z1 (unknown origin) in human HepG2 cell membranes transduced with lentiviral vector using luciferin-benzyl ether as substrate preincubated with NADPH for 30 mins followed by substrate addition and measured after 10 mins by P450-glo luciferase based luminescence assay.

Series [2] addresses T1, Cytochrome P450 4Z1. The series is described as follows: Inhibition of CYP4Z1 (unknown origin) in human HepG2 cell membranes transduced with lentiviral vector using luciferin-benzyl ether as substrate incubated for 5 mins followed by NADPH addition and measured after 20 mins by P450-glo luciferase based luminescence assay.
Series [3] addresses T2, Cytochrome P450 2C9 (Homo sapiens, UniProt P11712). The series is described as follows: Inhibition of CYP2C9 in human pooled liver microsomes using tolbutamide as substrate preincubated with NADPH for 30 mins followed by substrate addition and measured after 10 mins by UPLC-MS/MS analysis. The format is ADME.
Series [4] deals with T3, Cytochrome P450 1A2 (Homo sapiens, UniProt P05177).
T3 sequence (P05177 whole entry): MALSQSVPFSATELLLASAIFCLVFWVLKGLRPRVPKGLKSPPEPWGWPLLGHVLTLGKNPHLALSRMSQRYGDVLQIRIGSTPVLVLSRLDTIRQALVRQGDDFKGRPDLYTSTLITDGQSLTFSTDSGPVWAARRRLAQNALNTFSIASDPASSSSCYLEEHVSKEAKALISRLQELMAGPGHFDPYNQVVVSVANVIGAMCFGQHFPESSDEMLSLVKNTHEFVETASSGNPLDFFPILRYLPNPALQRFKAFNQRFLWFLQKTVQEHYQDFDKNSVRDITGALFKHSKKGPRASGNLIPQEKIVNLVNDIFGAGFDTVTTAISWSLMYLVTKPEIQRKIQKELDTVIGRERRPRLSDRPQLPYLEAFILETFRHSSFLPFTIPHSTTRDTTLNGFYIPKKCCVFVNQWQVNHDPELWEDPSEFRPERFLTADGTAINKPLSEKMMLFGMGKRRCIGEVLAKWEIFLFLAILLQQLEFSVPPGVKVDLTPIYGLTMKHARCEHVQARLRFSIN
The series is described as follows: Inhibition of CYP1A2 in human pooled liver microsomes using phenacetin as substrate preincubated with NADPH for 30 mins followed by substrate addition and measured after 10 mins by UPLC-MS/MS analysis. It counts as ADME.

In series [5] the target is T4, Cytochrome P450 2C8 (Homo sapiens, UniProt P10632).
T4 sequence (P10632 whole entry): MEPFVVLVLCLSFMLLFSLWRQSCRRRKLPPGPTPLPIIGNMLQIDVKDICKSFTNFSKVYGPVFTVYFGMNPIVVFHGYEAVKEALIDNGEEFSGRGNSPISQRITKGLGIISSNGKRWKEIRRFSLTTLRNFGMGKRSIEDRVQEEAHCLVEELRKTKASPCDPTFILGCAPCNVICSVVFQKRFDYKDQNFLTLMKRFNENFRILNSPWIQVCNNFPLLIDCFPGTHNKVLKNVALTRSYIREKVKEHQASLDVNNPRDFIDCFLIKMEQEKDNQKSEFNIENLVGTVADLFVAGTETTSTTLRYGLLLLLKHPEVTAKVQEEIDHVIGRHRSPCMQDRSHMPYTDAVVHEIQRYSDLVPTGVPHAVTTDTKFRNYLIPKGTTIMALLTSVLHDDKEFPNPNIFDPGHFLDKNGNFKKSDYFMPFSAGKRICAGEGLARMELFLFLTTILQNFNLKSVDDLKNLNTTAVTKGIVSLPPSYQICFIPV
The series is described as follows: Inhibition of CYP2C8 in human pooled liver microsomes using amodiaquine as substrate preincubated with NADPH for 30 mins followed by substrate addition and measured after 10 mins by UPLC-MS/MS analysis. It counts as ADME.

Series [6] addresses T5, Cytochrome P450 2D6 (Homo sapiens, UniProt P10635). The series can be described thus: Inhibition of CYP2D6 in human pooled liver microsomes using dextromethorphan as substrate after 10 mins by UPLC-MS/MS analysis. The format is ADME.
For series [7], the target named is T6, Cytochrome P450 2C19 (Homo sapiens, UniProt P33261). The series is described as follows: Inhibition of CYP2C19 in human pooled liver microsomes using (S)-mephenytoin as substrate after 10 mins by UPLC-MS/MS analysis. It counts as ADME.
T6 sequence (P33261 whole entry): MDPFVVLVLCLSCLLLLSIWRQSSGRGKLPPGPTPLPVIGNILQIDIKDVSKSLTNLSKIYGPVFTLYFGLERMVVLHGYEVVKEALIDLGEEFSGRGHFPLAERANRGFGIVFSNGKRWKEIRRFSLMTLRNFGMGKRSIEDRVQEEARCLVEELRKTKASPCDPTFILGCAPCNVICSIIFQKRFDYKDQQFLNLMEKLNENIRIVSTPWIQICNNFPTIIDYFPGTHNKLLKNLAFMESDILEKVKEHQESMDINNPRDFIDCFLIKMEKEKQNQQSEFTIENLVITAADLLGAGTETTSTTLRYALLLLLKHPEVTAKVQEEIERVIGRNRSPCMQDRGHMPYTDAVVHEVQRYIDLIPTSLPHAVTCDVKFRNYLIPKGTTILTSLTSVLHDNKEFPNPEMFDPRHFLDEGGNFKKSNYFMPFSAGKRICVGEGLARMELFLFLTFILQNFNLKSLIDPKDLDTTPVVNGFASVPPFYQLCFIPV
In series [8] the target is T2, Cytochrome P450 2C9. The series is described as follows: Inhibition of CYP2C9 in human pooled liver microsomes using tolbutamide as substrate after 10 mins by UPLC-MS/MS analysis. It counts as ADME.
Series [9] addresses T4, Cytochrome P450 2C8. The series can be described thus: Inhibition of CYP2C8 in human pooled liver microsomes using amodiaquine as substrate after 10 mins by UPLC-MS/MS analysis. It counts as ADME.
The target of series [10] is T3, Cytochrome P450 1A2. The series is described as follows: Inhibition of CYP1A2 in human pooled liver microsomes using phenacetin as substrate after 10 mins by UPLC-MS/MS analysis. It counts as ADME.
Series [11] addresses T7, CYP3A4/5 (Homo sapiens, UniProt P08684+P20815). The series can be described thus: Inhibition of CYP3A4/5 in human pooled liver microsomes using midazolam as substrate after 10 mins by UPLC-MS/MS analysis. The format is ADME. The settings on record: probe midazolam.
For series [12], the target named is T6, Cytochrome P450 2C19. The series is described as follows: Inhibition of CYP2C19 in human pooled liver microsomes using (S)-mephenytoin as substrate preincubated with NADPH for 30 mins followed by substrate addition and measured after 10 mins by UPLC-MS/MS analysis. The format is ADME.
Series [13] deals with T5, Cytochrome P450 2D6. The series can be described thus: Inhibition of CYP2D6 in human pooled liver microsomes using dextromethorphan as substrate preincubated with NADPH for 30 mins followed by substrate addition and measured after 10 mins by UPLC-MS/MS analysis. It counts as ADME.
Series [14] concerns the target T7, CYP3A4/5. The series is described as follows: Inhibition of CYP3A4/5 in human pooled liver microsomes using midazolam as substrate preincubated with NADPH for 30 mins followed by substrate addition and measured after 10 mins by UPLC-MS/MS analysis. The format is ADME. The settings on record: probe midazolam.
Another series deals with HepG2. The series can be described thus: Cytotoxicity against human HepG2 cells at 3 uM after 24 hrs by CellTiter-Glo luminescent cell viability assay. It counts as cell-based. The settings on record: hepg2, 24 h.
A further series deals with T47D. The series is described as follows: Cytotoxicity against human T47D cells at 3 uM after 24 hrs by CellTiter-Glo luminescent cell viability assay. The format is cell-based.

Molecules are shown by their SMILES.

T2 sequence (P11712 whole entry): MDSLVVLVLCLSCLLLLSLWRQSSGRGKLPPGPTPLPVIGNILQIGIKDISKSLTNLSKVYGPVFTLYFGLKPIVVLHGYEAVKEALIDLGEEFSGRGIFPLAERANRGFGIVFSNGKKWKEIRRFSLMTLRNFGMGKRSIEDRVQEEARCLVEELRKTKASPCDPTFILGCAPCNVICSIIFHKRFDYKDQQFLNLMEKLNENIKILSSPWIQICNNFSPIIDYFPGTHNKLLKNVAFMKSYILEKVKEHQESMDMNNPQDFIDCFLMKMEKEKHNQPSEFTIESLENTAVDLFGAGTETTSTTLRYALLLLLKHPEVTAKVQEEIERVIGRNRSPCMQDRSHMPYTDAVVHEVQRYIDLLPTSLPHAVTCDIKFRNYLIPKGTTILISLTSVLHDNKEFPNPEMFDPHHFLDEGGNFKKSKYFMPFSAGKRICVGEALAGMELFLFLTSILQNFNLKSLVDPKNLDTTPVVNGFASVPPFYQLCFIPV
T5 sequence (P10635 whole entry): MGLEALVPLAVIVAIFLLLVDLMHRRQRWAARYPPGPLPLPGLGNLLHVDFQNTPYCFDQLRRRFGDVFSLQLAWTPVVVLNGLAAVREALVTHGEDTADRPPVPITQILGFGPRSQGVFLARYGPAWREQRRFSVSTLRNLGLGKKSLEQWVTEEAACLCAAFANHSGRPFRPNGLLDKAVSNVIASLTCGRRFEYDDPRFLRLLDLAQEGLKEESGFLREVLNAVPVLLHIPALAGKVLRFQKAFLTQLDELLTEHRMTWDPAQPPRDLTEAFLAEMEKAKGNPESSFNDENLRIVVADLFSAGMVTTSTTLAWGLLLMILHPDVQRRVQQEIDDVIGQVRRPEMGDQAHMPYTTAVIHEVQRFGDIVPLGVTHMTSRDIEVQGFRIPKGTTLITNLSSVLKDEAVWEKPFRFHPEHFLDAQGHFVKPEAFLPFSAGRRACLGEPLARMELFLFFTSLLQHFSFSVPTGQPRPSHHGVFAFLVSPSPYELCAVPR

For the compound `Nn1nnc2ccccc21`, the figures for the half-maximal inhibitory concentration (IC50) against Cytochrome P450 4Z1 [1] and against Cytochrome P450 4Z1 [2] were 12 µM and 154 µM, respectively.

`O=C(O)CCCCCNn1nnc2ccccc21`: the IC50 against Cytochrome P450 2C9 [3] was 1940 µM; on Cytochrome P450 1A2 [4], 228 µM; on Cytochrome P450 2C8 [5], 954 µM; against Cytochrome P450 2D6 [6], 2850 µM; against Cytochrome P450 2C19 [7] it was over 3000 µM; at Cytochrome P450 2C9 [8] it was over 3000 µM. The IC50 against Cytochrome P450 2C8 [9] was determined as 2310 µM; against Cytochrome P450 1A2 [10] it was 2790 µM; against Cytochrome P450 2C19 [12], 1640 µM; against Cytochrome P450 2D6 [13] it was 1710 µM. The IC50 at 10 min against CYP3A4/5 [11] is 1310 µM; against CYP3A4/5 [14], 766 µM.

With `O=C(O)CCCCCCCNn1nnc2ccccc21`, the IC50 is 330 µM against Cytochrome P450 2C9 [3]; 55 µM at Cytochrome P450 1A2 [4]; 84 µM against Cytochrome P450 2C8 [5]; 826 µM against Cytochrome P450 2D6 [6]; 759 µM against Cytochrome P450 2C19 [7]; 343 µM against Cytochrome P450 2C9 [8]. For the same compound, the IC50 against Cytochrome P450 2C8 [9] is 306 µM; against Cytochrome P450 1A2 [10], 614 µM; against Cytochrome P450 2C19 [12] it was 246 µM; at Cytochrome P450 2D6 [13], 299 µM. Moreover, the figures for the IC50 at 10 min at CYP3A4/5 [11] and at CYP3A4/5 [14] were 244 µM and 128 µM, respectively. Besides, the Activity result in the series with HepG2 and in the series on T47D was “Non-Toxic” throughout.
